These results are taken from patent US10882835B2 (Imago Biosciences, Inc., priority 2013, dated 2021).

In series [1] the target is KDM1A (LSD1) (Homo sapiens (Human), UniProt O60341). As to the kind of experiment: 10-dose IC50 fluorescence coupling enzyme assay, LSD1 demethylase activity on histone H3(1-21)K4me2 peptide (HRP/Amplex Red). It is filed as biochemical. The conditions noted are these: 10 μM histone H3(1-21)K4me2 peptide substrate.
Series [2] is described as follows: Metabolic stability in murine liver microsomes. Type of series: in vitro ADME. The conditions noted are these: mouse liver microsomes, 2 μM compound, NADPH. The protocol: The metabolic stability of compounds disclosed herein in pooled human liver microsomes (HLM) and pooled male mouse liver microsomes (MMLM) was determined according to the following protocol, in which the concentrations of compounds in reaction systems were evaluated by LC/MS/MS for estimating the stability in liver microsomes.
Pooled human liver microsomes (HMMCPL; PL050B) and pooled male mouse liver microsomes (MSMCPL; MS033) were purchased from CellzDirect (Invitrogen). Microsomes were stored at −80 C prior to use.
A master solution was prepared containing microsome (stock concentration 5 mg/mL, volume 50 μL, final concentration 0.5 mg/mL), MgCl2 solution (stock concentration 50 mM, volume 50 μL, final concentration 5 mM), phosphate buffer (stock concentration 200 mM, volume 250 μL, final concentration 100 mM), and water (volume […]. Five μL of 200 μM test compounds or control solution (control compound: verapamil) was then added. The final concentration of test compounds or verapamil in the reaction system was 2 μM. The mixture was pre-warmed at 37 C for 5 min.
The reaction was started with the addition of 50 μL of 10 mM NADPH solution at the final concentration of 1 mM and carried out at 37 C. 50 μL of ultra-pure H2O was used instead of NADPH solution in the negative control.
Aliquots of 50 μL were taken from the reaction solution at 0 and 30 min. The reaction was stopped by the addition of 3 volumes of cold methanol with IS (200 nM imipramine, 200 nM labetalol and 2 μM ketoprofen) at the designated time points. Samples were centrifuged at 16,000 g for 10 minutes to precipitate protein. Aliquot of 100 μL of the supernatant was diluted by 100 μL ultra-pure H2O, and the mixture was used for LC/MS/MS analysis. All experiments were performed in duplicate.
Samples were analyzed using liquid chromatography-mass spectrometry. The LC system comprised a Shimadzu liquid chromatograph separation system equipped with degasser DGU-20A3, solvent delivery unit LC-20AD, system controller CBM-20A, column oven CTO-10ASVP and CTC Analytics HTC PAL System. Chromatographic conditions included a Phenomenex column, 5.0μ C18 (2.0×50 mm); a mobile phase of 0.1% formic acid in acetonitrile and 0.1% formic acid in water; an elution rate of 500 μL/min; column temperature 25 C; injection volume 10 μL. Mass spectrometric analysis was performed using an API 4000 instrument from AB Inc. (Canada) with an ESI interface. The data acquisition and control system were created using Analyst 1.5.1 software from ABI Inc. A turbo spray ion source and electrospray ionization were employed in a multiple reaction monitoring (MRM) scan. Additional parameters included: collision gas, 6 L/min; curtain gas, 30 L/min; nebulize gas, 50 L/min; auxiliary gas, 50 L/min; temperature, 500 C; ionspray voltage, +5500 v (positive MRM). Quadripoles Q1 and Q3 were set to 456.2 and 200.2, respectively; declustering potential (DP), entrance potential (EP), and collision cell entrance potential (CE) were set to 120, 10, and 55 v, respectively; collision cell exit potential (CXP) was 12 v.
All calculations were carried out using Microsoft Excel. Peak areas were determined from extracted ion chromatograms. The control compounds were included in the assay. Any value of the compounds that was not within the specified limits was rejected and the experiment was repeated. The reaction system without the cofactors was used to exclude the misleading factor that resulted from instability of chemical itself.

The structures appear in SMILES notation.

In turn, `O=C(N[C@@H](CCCCN[C@@H]1C[C@H]1c1ccccc1)C(=O)N1CCCC1)c1ccccc1` [Example 1, N—((S)-1-oxo-6-(((1R,2S)-2-phenylcyclopropyl)amino)-1-(pyrrolidin-1-yl)hexan-2-yl)benzamide] gave an IC50 in series [1] of less than 1 µM.

Regarding `O=C(N[C@@H](CCCCN[C@@H]1C[C@H]1c1ccccc1)C(=O)N1CCCCC1)c1ccccc1` [Example 2, N—((S)-1-oxo-6-(((1R,2S)-2-phenylcyclopropyl)amino)-1-(piperidin-1-yl)hexan-2-yl)benzamide], the “% at 30 min, MLM” value in series [2] is listed as “− (− is <20%)”. In series [1], the IC50 is less than 1 µM. In the same order, the values of `CN1CCN(C(=O)[C@H](CCCCN[C@@H]2C[C@H]2c2ccc(F)cc2)NC(=O)c2ccc(F)cc2)CC1` [Example 3, 4-fluoro-N—((S)-6-(((1R,2S)-2-(4-fluorophenyl)cyclopropyl)amino)-1-(4-methylpiperazin-1-yl)-1-oxohexan-2-yl)benzamide] are “+ (+ is ≥20%)” and less than 1 µM. In the same order, the values of `CN1CCN(C(=O)[C@H](CCCCN[C@@H]2C[C@H]2c2ccccc2)NC(=O)c2ccccc2)CC1` [Example 4, N—((S)-1-(4-methylpiperazin-1-yl)-1-oxo-6-(((1R,2S)-2-phenylcyclopropyl)amino)hexan-2-yl)benzamide] are “+ (+ is ≥20%)” and less than 1 µM.

For `CCN(CC)C(=O)[C@H](CCCCN[C@@H]1C[C@H]1c1ccccc1)NC(=O)c1ccccc1` [Example 5], in series [1], the IC50 was less than 1 µM. Regarding `O=C(N[C@@H](CCCCN[C@@H]1C[C@H]1c1ccccc1)C(=O)N1CCOCC1)c1ccccc1` [Example 6, N—((S)-1-morpholino-1-oxo-6-(((1R,2S)-2-phenylcyclopropyl)amino)hexan-2-yl)benzamide], in series [2], the “% at 30 min, MLM” value is recorded as “+ (+ is ≥20%)”. This molecule also registered an IC50 in series [1] of less than 1 µM. In the same order, the values of `O=C(N[C@@H](CCCCN[C@@H]1C[C@H]1c1ccc(F)cc1)C(=O)N1CCCCC1)c1ccccn1` [Example 7, N-[(2S)-6-[[(1R,2S)-2-(4-fluorophenyl)cyclopropyl]amino]-1-oxo-1-(piperidin-1-yl)hexan-2-yl]pyridine-2-carboxamide] are “− (− is <20%)” and less than 1 µM. Consider `C[C@@]1(NCCCC[C@H](NC(=O)c2ccccc2)C(=O)N2CCN(S(C)(=O)=O)CC2)C[C@H]1c1ccc(F)cc1` [Example 8, N—((S)-6-(((1R,2S)-2-(4-fluorophenyl)-1-methylcyclopropyl)amino)-1-(4-(methylsulfonyl)piperazin-1-yl)-1-oxohexan-2-yl)benzamide], for which the results for the “% at 30 min, MLM” value in series [2] and in series [2] (numeric values of Table 2) were “+ (+ is ≥20%)” and 65%, respectively. Besides, in series [1], the IC50 was more than 1 µM.

Take `O=C(N[C@@H](CCCCN[C@@H]1C[C@H]1c1ccc(F)cc1)C(=O)N1CCCCC1)c1ccccc1` [Example 10, N—((S)-6-(((1R,2S)-2-(4-fluorophenyl)cyclopropyl)amino)-1-oxo-1-(piperidin-1-yl)hexan-2-yl)benzamide]: the “% at 30 min, MLM” value in series [2] is reported as “− (− is <20%)”. Besides, the IC50 in series [1] was less than 1 µM. In the same order, the values of `O=C(N[C@@H](CCCCN[C@@H]1C[C@H]1c1ccc(F)cc1)C(=O)N1CCOCC1)c1ccccc1` [Example 11, N—((S)-6-(((1R,2S)-2-(4-fluorophenyl)cyclopropyl)amino)-1-morpholino-1-oxohexan-2-yl)benzamide] are “+ (+ is ≥20%)” and less than 1 µM. In the same order, the values of `CN1CCN(C(=O)[C@H](CCCCN[C@@H]2C[C@H]2c2ccc(F)cc2)NC(=O)c2ccccc2)CC1` [Example 12, N—((S)-6-(((1R,2S)-2-(4-fluorophenyl)cyclopropyl)amino)-1-(4-methylpiperazin-1-yl)-1-oxohexan-2-yl)benzamide] are “+ (+ is ≥20%)” and less than 1 µM.

With `O=C(N[C@@H](CCCCN[C@@H]1C[C@H]1c1ccc(F)cc1)C(=O)N1CCCCC1)c1ccc(F)cc1` [Example 13, 4-fluoro-N—((S)-6-(((1R,2S)-2-(4-fluorophenyl)cyclopropyl)amino)-1-oxo-1-(piperidin-1-yl)hexan-2-yl)], in series [2], the “% at 30 min, MLM” value is listed as “− (− is <20%)”. The IC50 in series [1] was less than 1 µM. In the same order, the values of `O=C(N[C@@H](CCCCN[C@@H]1C[C@H]1c1ccc(F)cc1)C(=O)N1CCCCC1)c1ccc(C(F)(F)F)cc1` [Example 14, N—((S)-6-(((1R,2S)-2-(4-fluorophenyl)cyclopropyl)amino)-1-oxo-1-(piperidin-1-yl)hexan-2-yl)-4-(trifluoromethyl)benzamide] are “− (− is <20%)” and less than 1 µM. With `O=C(N[C@@H](CCCCN[C@@H]1C[C@H]1c1ccc(F)cc1)C(=O)N1CCCCC1)c1ccc(-c2ccccc2)cc1` [Example 15, N—((S)-6-(((1R,2S)-2-(4-fluorophenyl)cyclopropyl)amino)-1-oxo-1-(piperidin-1-yl)hexan-2-yl)-[1,1′-biphenyl]-4-carboxamide], the “% at 30 min, MLM” value in series [2] was “− (− is <20%)”. With `O=C(N[C@@H](CCCCN[C@@H]1C[C@H]1c1ccc(F)cc1)C(=O)N1CCS(=O)(=O)CC1)c1ccccc1` [Example 16, N—((S)-1-(1,1-dioxidothiomorpholino)-6-(((1R,2S)-2-(4-fluorophenyl)cyclopropyl)amino)-1-oxohexan-2-yl)benzamide], the “% at 30 min, MLM” value in series [2] is recorded as “+ (+ is ≥20%)”. Moreover, the IC50 in series [1] is less than 1 µM. In the case of `O=C(N[C@@H](COCCN[C@@H]1C[C@H]1c1ccc(F)cc1)C(=O)N1CCOCC1)c1ccc(F)cc1` [Example 20, 4-fluoro-N—((S)-3-(2-(((1R,2S)-2-(4-fluorophenyl)cyclopropyl)amino)ethoxy)-1-morpholino-1-oxopropan-2-yl)benzamide], the “% at 30 min, MLM” value in series [2] is on record as “− (− is <20%)”. The same measure, in the same setting: with `O=C(CN[C@@H]1C[C@H]1c1ccc(F)cc1)NC[C@H](NC(=O)c1ccc(F)cc1)C(=O)N1CCOCC1` [Example 21, 4-fluoro-N—((S)-3-(2-(((1R,2S)-2-(4-fluorophenyl)cyclopropyl)amino)acetamido)-1-morpholino-1-oxopropan-2-yl)benzamide] the entry was “− (− is <20%)”. With `O=C(N[C@@H](CCCCN[C@@H]1C[C@H]1c1ccc(F)cc1)C(=O)N1CCCCC1)c1cnc[nH]1` [Example 23, N—((S)-6-((1R,2S)-2-(4-fluorophenyl)cyclopropylamino)-1-oxo-1-(piperidin-1-yl)hexan-2-yl)-1H-imidazole-5-carboxamide], the half-maximal inhibitory concentration (IC50) in series [1] was less than 1 µM. Regarding `CN1CCN(C(=O)[C@H](CCCC(=O)N[C@@H]2C[C@H]2c2ccc(F)cc2)NC(=O)c2ccc(F)cc2)CC1` [Example 24, 4-fluoro-N—((S)-6-((1R,2S)-2-(4-fluorophenyl)cyclopropylamino)-1-(4-methylpiperazin-1-yl)-1,6-dioxohexan-2-yl)benzamide], in series [2], the “% at 30 min, MLM” value is “+ (+ is ≥20%)”. Take `COc1ccc([C@@H]2C[C@H]2NC(=O)COC[C@H](NC(=O)c2ccc(F)cc2)C(=O)N2CCOCC2)cc1` [Example 25, 4-fluoro-N—((S)-3-(2-((1R,2S)-2-(4-methoxyphenyl)cyclopropylamino)-2-oxoethoxy)-1-morpholino-1-oxopropan-2-yl)benzamide]: in series [2], the “% at 30 min, MLM” value is “+ (+ is ≥20%)”. For the molecule `COc1ccc([C@@H]2C[C@H]2NC(=O)CCC[C@H](NC(=O)c2ccc(F)cc2)C(=O)N2CCN(C)CC2)cc1` [Example 26, 4-fluoro-N—((S)-6-((1R,2S)-2-(4-methoxyphenyl)cyclopropylamino)-1-(4-methylpiperazin-1-yl)-1,6-dioxohexan-2-yl)benzamide], in series [2], the “% at 30 min, MLM” value is “+ (+ is ≥20%)”. Still for that read-out and setting: with `CS(=O)(=O)N1CCN(C(=O)[C@H](CCCN[C@@H]2C[C@H]2c2ccc(F)cc2)NC(=O)c2ccc(F)cc2)CC1` [Example 29, 4-fluoro-N-[(2S)-5-[[(1R,2S)-2-(4-fluorophenyl)cyclopropyl]amino]-1-(4-methanesulfonylpiperazin-1-yl)-1-oxopentan-2-yl]benzamide] the entry was “− (− is <20%)”.
